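Exposure lasted 48 hours, with cells grown in 96-well plates and compounds tested at five concentrations. Here, GI50 denotes the concentration required for 50% inhibition of growth. TGI is the concentration that stops growth completely.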
Key:
Assay in all cases: inhibition of tumour cell growth, NCI panel, 48 h
[1] = test system: 786-0 renal
[2] = test system: A498 renal
[3] = test system: A549 NSCLC
[4] = test system: ACHN renal
[5] = test system: BT-549 breast
[6] = test system: CAKI-1 renal
[7] = test system: CCRF-CEM leukemia
[8] = test system: COLO 205 colon
[9] = test system: DU-145 prostate
[10] = test system: EKVX NSCLC
[11] = test system: HCC-2998 colon
[12] = test system: HCT-116 colon
[13] = test system: HCT-15 colon
[14] = test system: HL-60(TB) leukemia
[15] = test system: HOP-62 NSCLC
[16] = test system: HOP-92 NSCLC
[17] = test system: HS 578T breast
[18] = test system: HT29 colon
[19] = test system: IGROV1 ovarian
[20] = test system: K-562 leukemia
[21] = test system: KM12 colon
[22] = test system: LOX IMVI melanoma
[23] = test system: M14 melanoma
[24] = test system: MALME-3M melanoma
[25] = test system: MCF7 breast
[26] = test system: MDA-MB-231 breast
[27] = test system: MOLT-4 leukemia
[28] = test system: NCI-H226 lung

In the case of `COc1ccc(Cn2cc3c(c2-c2cc(OC)c(OC)c(OC)c2)CCc2c(CN4CCOCC4)noc2-3)cc1`, the GI50 [1] is reported as 668 nM, the TGI [1] is reported as > 100000 nM and the GI50 [2] is reported as 305 nM. The TGI [2] was 1030 nM, the GI50 [3] was 1130 nM and the TGI [3] was > 100000 nM. The GI50 [4] was 718 nM, the TGI [4] was > 100000 nM and the GI50 [5] was 1140 nM. The TGI [5] was 4970 nM, the GI50 [6] was 565 nM and the TGI [6] was > 100000 nM. The GI50 [7] was 1070 nM, the TGI [7] was > 100000 nM and the GI50 [8] was 1230 nM. The TGI [8] was 6080 nM, the GI50 [9] was 2190 nM and the TGI [9] was > 100000 nM. The GI50 [10] was 1350 nM, the TGI [10] was > 100000 nM and the GI50 [11] was 1740 nM. For the same compound, the TGI [11] was > 100000 nM, the GI50 [12] was 443 nM and the TGI [12] was > 100000 nM. The GI50 [13] was 457 nM, the TGI [13] was > 100000 nM and the GI50 [14] was 387 nM. For the same compound, the TGI [14] was 13100 nM, the GI50 [15] was 1030 nM and the TGI [15] was > 100000 nM. For the same compound, the GI50 [16] was 667 nM, the TGI [16] was > 100000 nM and the GI50 [17] was 432 nM. The TGI [17] was > 100000 nM, the GI50 [18] was 637 nM and the TGI [18] was > 100000 nM. For the same compound, the GI50 [19] was 871 nM, the TGI [19] was > 100000 nM and the GI50 [20] was 399 nM. For the same compound, the TGI [20] was > 100000 nM, the GI50 [21] was 435 nM and the TGI [21] was > 100000 nM. The GI50 [22] was 446 nM, the TGI [22] was > 100000 nM and the GI50 [23] was 555 nM. The TGI [23] was > 100000 nM, the GI50 [24] was 495 nM and the TGI [24] was > 100000 nM. The GI50 [25] was 362 nM, the TGI [25] was > 100000 nM and the GI50 [26] was 2810 nM. The TGI [26] was > 100000 nM, the GI50 [27] was 2590 nM and the TGI [27] was > 100000 nM. For the same compound, the GI50 [28] was 821 nM.

Reference: PubChem BioAssay (NCI)
